In ChEMBL document CHEMBL5223100, “Homobivalent, Trivalent, and Covalent PROTACs: Emerging Strategies for Protein Degradation” (J Med Chem, 2022) one finds Emax, IC50 and DC50 data, which are given here for eleven molecules.

Experiment [1] concerns the target Dual specificity mitogen-activated protein kinase kinase; MEK1/2 (Homo sapiens) (UniProt P36507+Q02750). Kind of experiment: Induction of MEK degradation in human HT-29 cells assessed as maximum degradation at 100 nM after 12 hrs relative to control. In kind it is cell-based.
For experiment [2], the system named is HT-29. Briefly: Antiproliferative activity against human HT-29 cells. It is filed as functional, cell-based.
The subject of experiment [3] is HeLa. Briefly: Antiproliferative activity against human HeLa cells. In kind it is functional, cell-based.
Experiment [4] deals with T1, Bromodomain-containing protein 4 (Homo sapiens, UniProt O60885). Kind of experiment: Induction of BRD4 degradation in human HeLa cells assessed as maximum degradation at 10 nM after 12 hrs relative to control. It is filed as cell-based.
For experiment [5], the system named is HFF-1. Kind of experiment: Antiproliferative activity against human HFF-1 cells. In kind it is functional, cell-based.
The target in experiment [6] is T1, Bromodomain-containing protein 4. Kind of experiment: Induction of BRD4 degradation in human HeLa cells assessed as maximum degradation at 30 nM after 12 hrs relative to control. In kind it is cell-based.
The target of experiment [7] is T2, Tyrosine-protein kinase BTK (Homo sapiens, UniProt Q06187). Briefly: Induction of BTK degradation in human MINO cells. In kind it is cell-based.
For experiment [8], the target named is T2, Tyrosine-protein kinase BTK. Kind of experiment: Induction of BTK degradation in human MINO cells assessed as maximum degradation relative to control. In kind it is cell-based.
The target of experiment [9] is Transcription intermediary factor 1-alpha (Homo sapiens, UniProt O15164). Kind of experiment: Inhibition of His-tagged TRIM24 (unknown origin) expressed in Escherichia coli BL21(DE3)pLysS competent cells using biotinylated-H3K23ac peptide as substrate incubated for 30 mins by Alphascreen assay. (Alpha assays give light when donor and acceptor beads are brought close together.)

Experiment [10] addresses ALK tyrosine kinase receptor (Homo sapiens) (UniProt Q9UM73). Kind of experiment: Induction of ALK degradation in human SU-DHL-1 cells assessed as maximum degradation at 100 nM pretreated with S-Ac-GSH followed by compound addition and measured after 12 hrs relative to control. In kind it is cell-based.
For experiment [11] the target is unchanged. Kind of experiment: Induction of ALK degradation in human SU-DHL-1 cells assessed as maximum degradation at 3 uM after 12 hrs relative to control. It is filed as cell-based.
The test system of experiment [12] is SU-DHL-1. Briefly: Antiproliferative activity against human SU-DHL-1 cells. It is filed as functional, cell-based.
The target in experiment [13] is Bromodomain-containing protein 2 (Homo sapiens, UniProt P25440). Kind of experiment: Induction of BRD2 degradation in HEK293 cells after 4 hrs. It is filed as cell-based.
The subject of experiment [14] is MV4-11. Briefly: Antiproliferative activity against human MV4-11 cells.
In experiment [15] the target is T1, Bromodomain-containing protein 4. Briefly: Induction of BRD4 degradation in HEK293 cells after 4 hrs. It is filed as cell-based.
The target of experiment [16] is Bromodomain-containing protein 3 (Homo sapiens, UniProt Q15059). Kind of experiment: Induction of BRD3 degradation in HEK293 cells after 4 hrs. In kind it is cell-based.
Experiment [17] deals with T3, Tyrosine-protein kinase Blk (Homo sapiens, UniProt P51451). Kind of experiment: Induction of BLK degradation in human K562 cells. In kind it is cell-based.
Experiment [18] addresses T2, Tyrosine-protein kinase BTK. Briefly: Induction of BTK degradation in human K562 cells assessed as maximum degradation relative to control. In kind it is cell-based.
The target of experiment [19] is T3, Tyrosine-protein kinase Blk. Briefly: Induction of BLK degradation in human K562 cells assessed as maximum degradation relative to control. It is filed as cell-based.
Target sequence in this assay (P51451 2-505 limits assumed): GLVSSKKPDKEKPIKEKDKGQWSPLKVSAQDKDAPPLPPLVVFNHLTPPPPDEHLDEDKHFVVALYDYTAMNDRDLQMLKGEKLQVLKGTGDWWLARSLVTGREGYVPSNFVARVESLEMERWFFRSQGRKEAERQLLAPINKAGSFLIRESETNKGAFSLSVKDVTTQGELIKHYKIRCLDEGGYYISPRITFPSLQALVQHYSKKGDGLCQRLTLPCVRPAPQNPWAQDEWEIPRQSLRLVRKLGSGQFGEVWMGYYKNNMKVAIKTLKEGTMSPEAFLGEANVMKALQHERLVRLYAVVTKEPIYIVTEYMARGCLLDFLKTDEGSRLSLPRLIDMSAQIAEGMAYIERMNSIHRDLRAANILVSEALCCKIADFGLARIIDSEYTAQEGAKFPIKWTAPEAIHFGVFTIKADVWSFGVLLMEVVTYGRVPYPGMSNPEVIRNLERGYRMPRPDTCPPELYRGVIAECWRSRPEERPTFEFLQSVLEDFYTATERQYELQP
In experiment [20] the target is T2, Tyrosine-protein kinase BTK. Kind of experiment: Induction of BTK degradation in human K562 cells. It is filed as cell-based.
Experiment [21] deals with T4, Protein cereblon (Homo sapiens, UniProt Q96SW2). Kind of experiment: Induction of CRBN degradation in human MM1.S cells assessed as maximum degradation at 100 nM incubated for 24 hrs relative to control. It is filed as cell-based.
For experiment [22], the target named is T4, Protein cereblon. Kind of experiment: Induction of CRBN degradation in human HeLa cells at 1 uM incubated for 4 hrs relative to control. It is filed as cell-based.
Experiment [23] deals with T4, Protein cereblon. Briefly: Induction of CRBN degradation in human HeLa cells incubated for 4 hrs. In kind it is cell-based.

T4 sequence (Q96SW2 whole entry): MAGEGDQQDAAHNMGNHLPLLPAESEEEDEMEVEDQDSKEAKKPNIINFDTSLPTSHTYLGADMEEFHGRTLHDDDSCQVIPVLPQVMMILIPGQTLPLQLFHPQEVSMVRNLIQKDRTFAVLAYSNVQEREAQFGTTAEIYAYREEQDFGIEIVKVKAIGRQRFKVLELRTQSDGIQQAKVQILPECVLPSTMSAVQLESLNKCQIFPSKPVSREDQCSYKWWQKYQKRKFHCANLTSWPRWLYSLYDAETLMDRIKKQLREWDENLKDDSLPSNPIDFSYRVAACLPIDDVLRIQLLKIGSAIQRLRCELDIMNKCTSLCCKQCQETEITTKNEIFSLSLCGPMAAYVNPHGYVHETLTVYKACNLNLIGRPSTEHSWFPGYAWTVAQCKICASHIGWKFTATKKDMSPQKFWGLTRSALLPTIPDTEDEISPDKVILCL
T2 sequence (Q06187 whole entry): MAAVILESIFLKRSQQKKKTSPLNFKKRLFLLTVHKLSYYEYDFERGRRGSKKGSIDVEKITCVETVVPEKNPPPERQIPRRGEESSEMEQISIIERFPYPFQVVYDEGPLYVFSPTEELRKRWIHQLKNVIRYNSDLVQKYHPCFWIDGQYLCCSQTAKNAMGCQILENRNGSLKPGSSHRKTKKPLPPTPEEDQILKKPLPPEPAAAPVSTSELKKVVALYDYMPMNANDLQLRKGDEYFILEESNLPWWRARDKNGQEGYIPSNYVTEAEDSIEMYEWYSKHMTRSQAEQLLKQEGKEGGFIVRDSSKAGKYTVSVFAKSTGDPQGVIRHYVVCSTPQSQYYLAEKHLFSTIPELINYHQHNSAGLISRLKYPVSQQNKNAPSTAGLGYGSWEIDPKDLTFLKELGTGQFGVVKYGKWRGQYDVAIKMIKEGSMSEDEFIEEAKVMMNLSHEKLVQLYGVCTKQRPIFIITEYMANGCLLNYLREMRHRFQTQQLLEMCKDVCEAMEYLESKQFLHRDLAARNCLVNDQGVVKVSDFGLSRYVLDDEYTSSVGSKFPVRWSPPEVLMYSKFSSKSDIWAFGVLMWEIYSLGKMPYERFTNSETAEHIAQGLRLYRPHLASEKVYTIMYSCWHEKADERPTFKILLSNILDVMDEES
ALK tyrosine kinase receptor (Homo sapiens), sequence (Q9UM73 19-1620 limits assumed): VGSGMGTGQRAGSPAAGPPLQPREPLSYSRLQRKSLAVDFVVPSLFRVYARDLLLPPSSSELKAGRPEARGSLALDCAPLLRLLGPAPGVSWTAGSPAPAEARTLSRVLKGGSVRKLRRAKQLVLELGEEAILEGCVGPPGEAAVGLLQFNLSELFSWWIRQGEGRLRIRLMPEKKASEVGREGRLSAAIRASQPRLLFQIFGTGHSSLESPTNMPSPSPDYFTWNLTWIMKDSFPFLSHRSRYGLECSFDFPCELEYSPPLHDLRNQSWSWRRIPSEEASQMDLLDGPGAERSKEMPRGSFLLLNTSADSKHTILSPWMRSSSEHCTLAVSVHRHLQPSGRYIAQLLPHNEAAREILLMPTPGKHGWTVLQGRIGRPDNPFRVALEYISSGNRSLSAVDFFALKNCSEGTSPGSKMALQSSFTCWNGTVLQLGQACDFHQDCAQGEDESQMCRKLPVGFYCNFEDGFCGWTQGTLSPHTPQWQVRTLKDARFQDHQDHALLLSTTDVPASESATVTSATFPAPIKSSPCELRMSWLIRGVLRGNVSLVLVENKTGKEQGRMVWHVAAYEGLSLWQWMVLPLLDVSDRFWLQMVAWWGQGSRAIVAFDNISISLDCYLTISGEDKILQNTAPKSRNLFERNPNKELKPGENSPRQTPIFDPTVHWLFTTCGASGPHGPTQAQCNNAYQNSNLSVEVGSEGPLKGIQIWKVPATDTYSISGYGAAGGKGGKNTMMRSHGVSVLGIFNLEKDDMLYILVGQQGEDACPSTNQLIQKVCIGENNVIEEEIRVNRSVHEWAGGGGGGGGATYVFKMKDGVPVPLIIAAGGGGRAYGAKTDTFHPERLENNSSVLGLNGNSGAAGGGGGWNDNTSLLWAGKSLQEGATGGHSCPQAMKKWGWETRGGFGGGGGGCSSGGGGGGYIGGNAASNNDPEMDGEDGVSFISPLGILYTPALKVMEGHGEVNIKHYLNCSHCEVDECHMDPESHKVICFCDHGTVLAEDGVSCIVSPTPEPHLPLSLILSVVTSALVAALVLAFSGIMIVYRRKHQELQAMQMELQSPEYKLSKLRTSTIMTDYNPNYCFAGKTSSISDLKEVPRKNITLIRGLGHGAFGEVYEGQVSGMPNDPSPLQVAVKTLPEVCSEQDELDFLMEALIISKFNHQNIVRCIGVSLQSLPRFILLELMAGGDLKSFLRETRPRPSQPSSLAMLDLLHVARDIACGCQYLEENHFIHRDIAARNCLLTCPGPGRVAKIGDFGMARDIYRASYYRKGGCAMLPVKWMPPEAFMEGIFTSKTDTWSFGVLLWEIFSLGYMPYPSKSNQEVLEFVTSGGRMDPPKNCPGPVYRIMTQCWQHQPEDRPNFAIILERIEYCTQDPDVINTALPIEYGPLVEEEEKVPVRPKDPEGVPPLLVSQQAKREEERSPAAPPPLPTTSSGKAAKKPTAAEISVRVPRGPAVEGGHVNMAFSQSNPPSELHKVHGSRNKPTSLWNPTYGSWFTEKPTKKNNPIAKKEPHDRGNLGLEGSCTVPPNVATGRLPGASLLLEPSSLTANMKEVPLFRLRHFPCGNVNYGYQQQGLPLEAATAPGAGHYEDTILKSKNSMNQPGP
Bromodomain-containing protein 3, sequence (Q15059 whole entry): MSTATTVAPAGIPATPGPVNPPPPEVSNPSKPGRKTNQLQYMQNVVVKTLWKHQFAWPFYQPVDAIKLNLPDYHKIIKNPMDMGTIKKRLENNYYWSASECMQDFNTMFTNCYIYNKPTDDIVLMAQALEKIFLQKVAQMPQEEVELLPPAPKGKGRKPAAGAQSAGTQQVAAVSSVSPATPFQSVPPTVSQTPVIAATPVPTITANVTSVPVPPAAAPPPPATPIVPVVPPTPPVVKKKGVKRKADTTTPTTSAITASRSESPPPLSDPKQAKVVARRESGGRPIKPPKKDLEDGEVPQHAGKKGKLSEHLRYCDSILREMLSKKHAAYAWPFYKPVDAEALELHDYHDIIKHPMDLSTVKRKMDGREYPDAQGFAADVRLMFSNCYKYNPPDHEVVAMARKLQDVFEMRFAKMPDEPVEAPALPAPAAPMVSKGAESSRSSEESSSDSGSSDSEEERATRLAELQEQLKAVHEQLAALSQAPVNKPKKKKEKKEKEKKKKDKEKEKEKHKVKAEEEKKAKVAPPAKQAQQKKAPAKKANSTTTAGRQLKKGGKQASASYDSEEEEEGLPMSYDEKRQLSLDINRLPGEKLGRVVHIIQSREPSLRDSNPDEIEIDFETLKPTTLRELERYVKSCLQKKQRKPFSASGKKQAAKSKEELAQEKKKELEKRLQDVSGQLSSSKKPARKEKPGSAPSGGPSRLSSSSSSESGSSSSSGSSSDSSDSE
Dual specificity mitogen-activated protein kinase kinase; MEK1/2 (Homo sapiens), sequence (P36507 whole entry, looked up): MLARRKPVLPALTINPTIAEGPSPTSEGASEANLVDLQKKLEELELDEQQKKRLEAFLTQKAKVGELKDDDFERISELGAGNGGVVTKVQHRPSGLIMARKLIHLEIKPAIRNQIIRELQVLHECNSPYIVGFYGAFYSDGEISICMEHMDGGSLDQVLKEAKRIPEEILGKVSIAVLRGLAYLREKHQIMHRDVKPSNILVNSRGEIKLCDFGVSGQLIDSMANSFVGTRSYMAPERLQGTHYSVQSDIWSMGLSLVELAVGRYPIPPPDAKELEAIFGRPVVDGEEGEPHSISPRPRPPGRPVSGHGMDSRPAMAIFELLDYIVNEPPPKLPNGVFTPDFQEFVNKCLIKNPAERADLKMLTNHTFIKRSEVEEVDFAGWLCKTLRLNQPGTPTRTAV
Dual specificity mitogen-activated protein kinase kinase; MEK1/2 (Homo sapiens), sequence (Q02750 whole entry, looked up): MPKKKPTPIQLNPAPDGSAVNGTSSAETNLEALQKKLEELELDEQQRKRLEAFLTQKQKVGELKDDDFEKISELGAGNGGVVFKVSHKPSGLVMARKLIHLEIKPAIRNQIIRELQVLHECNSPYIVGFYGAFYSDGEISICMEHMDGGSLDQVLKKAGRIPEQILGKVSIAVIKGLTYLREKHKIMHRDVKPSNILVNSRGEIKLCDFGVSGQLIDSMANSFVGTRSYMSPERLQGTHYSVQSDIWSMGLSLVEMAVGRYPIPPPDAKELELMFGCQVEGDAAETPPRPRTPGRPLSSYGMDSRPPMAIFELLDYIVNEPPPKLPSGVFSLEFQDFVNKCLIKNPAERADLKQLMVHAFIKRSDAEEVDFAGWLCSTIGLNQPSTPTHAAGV

On to `Cc1ncsc1-c1ccc([C@H](C)NC(=O)[C@@H]2C[C@@H](OC(=O)CCCCn3cc(CNC(=O)CC[C@H](NC(=O)c4ccc(NCc5cnc6nc(N)[nH]c(=O)c6n5)cc4)C(=O)O)nn3)CN2C(=O)[C@@H](NC(=O)CCCCCCCCCCNCCCONC(=O)c2ccc(F)c(F)c2Nc2ccc(I)cc2F)C(C)(C)C)cc1`, for which, in experiment [1], the Emax stood at 90%. The same molecule had an IC50 in [2] of 246 nM.
As for `Cc1ncsc1-c1ccc([C@H](C)NC(=O)[C@@H]2C[C@@H](O)CN2C(=O)[C@@H](NC(=O)COCCCOCCNC(=O)C[C@@H]2N=C(c3ccc(Cl)cc3)c3c(sc(C)c3C)-n3c(C)nnc32)C(C)(C)C)cc1`, the IC50 in experiment [3] was determined as 183 nM. The Emax in experiment [4] turned out to be 100%.
Turning to `Cc1ncsc1-c1ccc([C@H](C)NC(=O)[C@@H]2C[C@@H](OC(=O)CCCCn3cc(CNC(=O)CC[C@H](NC(=O)c4ccc(NCc5cnc6nc(N)[nH]c(=O)c6n5)cc4)C(=O)O)nn3)CN2C(=O)[C@@H](NC(=O)COCCCOCCNC(=O)C[C@@H]2N=C(c3ccc(Cl)cc3)c3c(sc(C)c3C)-n3c(C)nnc32)C(C)(C)C)cc1`, the concentration for half-maximal inhibition (IC50) was above 10000 nM in experiment [5] and 246 nM in experiment [3]. Besides, the Emax in experiment [6] came to 100%.
With `Nc1ncnc2c1c(-c1ccc(Oc3ccccc3)cc1)nn2[C@@H]1CCCN(C(=O)CCCCCCOCCOCCOCCOCCOc2cccc3c2C(=O)N(C2CCC(=O)NC2=O)C3=O)C1` (stereo partly specified), the DC50 in experiment [7] came to 2.2 nM. The Emax in experiment [8] was 97%.
Regarding `CCCOc1cccc(Oc2cc3c(cc2NS(=O)(=O)c2ccc(OC)c(OC)c2)n(C)c(=O)n3C)c1`, the half-inhibitory concentration (IC50) in [9] was 218 nM.
In the case of `Cc1cc(Nc2ncc(Cl)c(Nc3ccccc3S(=O)(=O)C(C)C)n2)c(OC(C)C)cc1C1CCN(CC(=O)NCCNc2cccc3c2C(=O)N(C2CCC(=O)N(C(=O)OCCSSCCn4cc(CNC(=O)CC[C@H](NC(=O)c5ccc(NCc6cnc7nc(N)[nH]c(=O)c7n6)cc5)C(=O)O)nn4)C2=O)C3=O)CC1` (stereo partly specified), the Emax in experiment [10] and in [11] was 100% each time. Besides, in experiment [12], the IC50 came out at 465 nM.
With `Nc1ncnc2c1c(-c1ccc(Oc3ccccc3)cc1)nn2[C@@H]1CCCN(C(=O)/C=C/CCCCOCCOCCOCCOCCOc2cccc3c2C(=O)N(C2CCC(=O)NC2=O)C3=O)C1` (stereo partly specified), the 50% degradation concentration (DC50) in [7] was determined as 1.9 nM. The maximal response (Emax) in experiment [8] amounted to 88%.
Regarding `Cc1ncsc1-c1ccc(CNC(=O)[C@@H]2C[C@@H](O)CN2C(=O)[C@@H](NC(=O)OCC(C)(COCCOCCOCCNC(=O)C[C@@H]2N=C(c3ccc(Cl)cc3)c3c(sc(C)c3C)-n3c(C)nnc32)COCCOCCOCCNC(=O)C[C@@H]2N=C(c3ccc(Cl)cc3)c3c(sc(C)c3C)-n3c(C)nnc32)C(C)(C)C)cc1`, the figures for the DC50 in [13], in experiment [15] and in [16] were 1.1 nM, 0.7 nM and 3.3 nM, respectively. The molecule also showed an IC50 in experiment [14] of 1.1 nM.
As to `C=CC(=O)N1C[C@@H](n2nc(-c3ccc(Oc4ccccc4)cc3)c3c(N)ncnc32)C[C@H]1C(=O)OCCOCCOCC(=O)N[C@H](C(=O)N1C[C@H](O)C[C@H]1C(=O)NCc1ccc(-c2scnc2C)cc1)C(C)(C)C`, the 50% degradation concentration (DC50) in experiment [17] is 220 nM; in experiment [20], 136 nM. Also, the figures for the Emax in experiment [18] and in experiment [19] were 88% and 75%, respectively.
With `Cc1ncsc1-c1ccc(CNC(=O)[C@@H]2C[C@@H](O)CN2C(=O)[C@@H](NC(=O)CCCCOCCCCCOCCCCCCNc2cccc3c2C(=O)N(C2CCC(=O)NC2=O)C3=O)C(C)(C)C)cc1` (stereo partly specified), the maximal effect (Emax) in experiment [21] is above 90%.
Turning to `Cc1ncsc1-c1ccc(CNC(=O)[C@@H]2C[C@@H](O)CN2C(=O)[C@@H](NC(=O)COCCCCCOCCOCCCCCOCC(=O)NCCNc2cccc3c2C(=O)N(C2CCC(=O)NC2=O)C3=O)C(C)(C)C)cc1` (stereo partly specified), the maximum response (Emax) in [22] was 75%. In addition, in experiment [23], the DC50 is 200 nM.

A word on the Emax: it is the size of the effect at its maximum, as opposed to the concentration needed. The term IC50 denotes the concentration needed to halve the response being measured. By DC50 is commonly meant the concentration giving 50% degradation.
